From ChEMBL document CHEMBL6177993, “De Novo 3-(Phenylcarbamoyl) Benzoate Analogues: Efficacy against Multidrug-Resistant S. aureus and Elucidation of the Biodistribution Profile” (J Med Chem, 2025)
Converted amounts (≈) assume the structure as drawn. The source made the active and inactive calls. The calls are words filed in the database; no cut-off is given here.

What was measured:
[1] = Drug distribution in female BALB/c mouse kidney measured after 24 hrs; type: ADME, tissue-based; settings: in vivo
Staphylococcus aureus [2] = test: Bactericidal activity against Staphylococcus aureus ATCC 29213 at 4 to 8 time MIC measured after 8 hrs by time-kill assay; type: functional, organism-based
[3] = Solubility of the compound in DMSO/DMF; type: physicochemical
[4] = Drug distribution in female BALB/c mouse spleen measured after 24 hrs; type: ADME, tissue-based; settings: in vivo
Staphylococcus aureus [5] = test: Antibacterial activity against vacomycin-resistant Staphylococcus aureus VRS 1 assessed as reduction in bacterial growth measured after 18 to 24 hrs by broth microdilution method; type: functional; settings: time 18-24 hrs
Escherichia coli = test: Antibacterial activity against Escherichia coli ATCC 25922 assessed as reduction in bacterial growth measured after 18 to 24 hrs by broth microdilution method; type: functional; settings: time 18-24 hrs
Staphylococcus aureus [6] = test: Antibiofilm activity in Staphylococcus aureus ATCC 29213 assessed as disruption of preformed biofilm at 10 times MIC measured after 24 hrs by crystal violet staining based assay relative to control; type: functional
[7] = Toxicity in female BALB/c mouse assessed as effect on lung measured after 24 hrs by H and E staining based analysis; type: tissue-based; settings: in vivo
Staphylococcus aureus [8] = test: Antibacterial activity against vacomycin-resistant Staphylococcus aureus VRS 4 assessed as reduction in bacterial growth measured after 18 to 24 hrs by broth microdilution method; type: functional; settings: time 18-24 hrs
Staphylococcus aureus [9] = test: Antibacterial activity against methicillin-resistant Staphylococcus aureus NRS 193 assessed as reduction in bacterial growth measured after 18 to 24 hrs by broth microdilution method; type: functional; settings: time 18-24 hrs
Enterococcus faecalis = test: Antibacterial activity against Enterococcus faecalis ATCC 35550 assessed as reduction in bacterial growth measured after 18 to 24 hrs by broth microdilution method; type: functional; settings: time 18-24 hrs
Staphylococcus aureus [10] = test: Antibacterial activity against Staphylococcus aureus ATCC 29213 measured after 20 passages; type: functional, organism-based
Staphylococcus aureus [11] = test: Antibacterial activity against methicillin-resistant Staphylococcus aureus NRS 119 assessed as reduction in bacterial growth measured after 18 to 24 hrs by broth microdilution method; type: functional; settings: time 18-24 hrs
[12] = Hemolytic activity in human Red blood cell at 32 ug/ml measured after 1 hrs by spectrophotometric analysis relative to control; type: toxicity, cell-based, Erythrocyte; settings: red blood cells, at 32 µg/mL, read-out: Activity
[13] = Drug distribution in female BALB/c mouse heart measured after 24 hrs; type: ADME, tissue-based; settings: in vivo
Staphylococcus aureus [14] = test: Antibacterial activity against methicillin-resistant Staphylococcus aureus NRS 198 assessed as reduction in bacterial growth measured after 18 to 24 hrs by broth microdilution method; type: functional; settings: time 18-24 hrs
Staphylococcus aureus [15] = test: Antibacterial activity against Staphylococcus aureus ATCC 29213 infected in female BALB/c mouse skin infection model assessed as reduction in bacterial load at 10 times MIC pre-infected with bacteria followed by compound addition and measured after 24 hrs relative to control; type: functional; parameters: scale not given: the % may be the effect or the level left
Staphylococcus aureus [16] = test: Antibacterial activity against Staphylococcus aureus ATCC 29213 infected in female BALB/c mouse skin infection model assessed as reduction in skin lesions at 10 times MIC pre-infected with bacteria followed by compound addition and measured after 24 hrs; type: functional, organism-based
Staphylococcus aureus [17] = test: Inhibition of biofilm in Staphylococcus aureus ATCC 29213 at 1 times MIC measured after 12 hrs by crystal violet staining based analysis relative to control; type: functional
Staphylococcus aureus [18] = test: Antibiofilm activity in Staphylococcus aureus ATCC 29213 assessed as disruption of preformed biofilm at 5 times MIC measured after 24 hrs by crystal violet staining based assay relative to control; type: functional
Bacillus subtilis = test: Antibacterial activity against Bacillus subtilis IITKSM1 assessed as reduction in bacterial growth measured after 18 to 24 hrs by broth microdilution method; type: functional; settings: time 18-24 hrs
Staphylococcus aureus [19] = test: Inhibition of biofilm in Staphylococcus aureus ATCC 29213 at 0.5 times MIC measured after 12 hrs by crystal violet staining based analysis relative to control; type: functional
Staphylococcus aureus [20] = test: Antibacterial activity against Staphylococcus aureus ATCC 29213 infected in female BALB/c mouse skin infection model assessed as reduction in number of bacterial cells in skin at 10 times MIC pre-infected with bacteria followed by compound addition and measured after 24 hrs; type: functional, organism-based
Staphylococcus aureus [21] = test: Antibacterial activity against methicillin-sensitive Staphylococcus aureus ATCC 29213 assessed as reduction in bacterial growth measured after 18 to 24 hrs by broth microdilution method; type: functional; settings: time 18-24 hrs
[22] = Drug distribution in female BALB/c mouse liver measured after 24 hrs; type: ADME, tissue-based; settings: in vivo
Staphylococcus aureus [23] = test: Antibacterial activity against methicillin-resistant Staphylococcus aureus NRS 194 assessed as reduction in bacterial growth measured after 18 to 24 hrs by broth microdilution method; type: functional; settings: time 18-24 hrs
[24] = Toxicity in female BALB/c mouse assessed as effect on body weight measured after 24 hrs; settings: in vivo
Staphylococcus aureus [25] = test: Antibacterial activity against methicillin-resistant Staphylococcus aureus NRS 192 assessed as reduction in bacterial growth measured after 18 to 24 hrs by broth microdilution method; type: functional; settings: time 18-24 hrs
Staphylococcus aureus [26] = test: Antibacterial activity against methicillin-resistant Staphylococcus aureus NRS 191 assessed as reduction in bacterial growth measured after 18 to 24 hrs by broth microdilution method; type: functional; settings: time 18-24 hrs
Staphylococcus aureus [27] = test: Antibiofilm activity in Staphylococcus aureus ATCC 29213 assessed as disruption of preformed biofilm at 20 times MIC measured after 24 hrs by crystal violet staining based assay relative to control; type: functional
Cell membrane [28] = test: Disruption of cell membrane in Staphylococcus aureus ATCC 29213 assessed as increase in PI uptake at 10 times MIC measured after 8 mins by fluorescence based microplate reader analysis
[29] = Toxicity in female BALB/c mouse assessed as effect on heart measured after 24 hrs by H and E staining based analysis; type: tissue-based; settings: in vivo
[30] = Toxicity in female BALB/c mouse assessed as effect on spleen measured after 24 hrs by H and E staining based analysis; type: tissue-based; settings: in vivo
Staphylococcus aureus [31] = test: Inhibition of biofilm in Staphylococcus aureus ATCC 29213 at 1 ug/ml measured after 12 hrs by crystal violet staining based analysis; type: functional, organism-based; settings: dose 1.0 µg/ml
Staphylococcus aureus [32] = test: Antibacterial activity against methicillin-resistant Staphylococcus aureus NRS 100 assessed as reduction in bacterial growth measured after 18 to 24 hrs by broth microdilution method; type: functional; settings: time 18-24 hrs
Pseudomonas aeruginosa = test: Antibacterial activity against Pseudomonas aeruginosa ATCC 27853 assessed as reduction in bacterial growth measured after 18 to 24 hrs by broth microdilution method; type: functional; settings: time 18-24 hrs
[33] = Drug distribution in female BALB/c mouse lung measured after 24 hrs; type: ADME, tissue-based; settings: in vivo
[34] = Drug distribution in female BALB/c mouse skin measured after 24 hrs; type: ADME, tissue-based, Skin of body; settings: in vivo
Acinetobacter baumannii = test: Antibacterial activity against Acinetobacter baumannii BAA 1605 assessed as reduction in bacterial growth measured after 18 to 24 hrs by broth microdilution method; type: functional; settings: time 18-24 hrs
Cell membrane [35] = test: Induction of cytoplasmic membrane depolarization in Staphylococcus aureus ATCC 29213 assessed as fold increase in fluorescence intensity at 10 times MIC measured after 30 min by DiSC3-5 dye based fluorescence method; type: subcellular
Staphylococcus aureus [36] = test: Antibacterial activity against Staphylococcus aureus ATCC 29213 infected in female BALB/c mouse skin infection model assessed as reduction of abscess in subcutaneous tissue at 10 times MIC pre-infected with bacteria followed by compound addition and measured after 24 hrs; type: functional, organism-based
Staphylococcus aureus [37] = test: Antibacterial activity against methicillin-resistant Staphylococcus aureus NRS 186 assessed as reduction in bacterial growth measured after 18 to 24 hrs by broth microdilution method; type: functional; settings: time 18-24 hrs

SMILES: O=C(O)c1cccc(C(=O)Nc2c(C(c3ccc(F)cc3)c3ccc(F)cc3)cc(Cl)cc2C(c2ccc(F)cc2)c2ccc(F)cc2)c1
- Drug uptake [1]: 4.02 nmol/mg
- Activity (Staphylococcus aureus [2]): Active
- solubility [3]: 570 mg/mL (≈ 838000 µM)
- Drug uptake [4]: 9.01 nmol/mg
- MIC (Staphylococcus aureus [5]): 2 µg/mL (≈ 2.94 µM)
- MIC (Escherichia coli): > 64 µg/mL
- Activity (Staphylococcus aureus [6]): 11.84%
- Activity [7]: Non-toxic
- MIC (Staphylococcus aureus [8]): 2 µg/mL (≈ 2.94 µM)
- MIC (Staphylococcus aureus [9]): 2 µg/mL (≈ 2.94 µM)
- MIC (Enterococcus faecalis): 1 µg/mL (≈ 1.47 µM)
- Activity (Staphylococcus aureus [10]): Active
- MIC (Staphylococcus aureus [11]): 2 µg/mL (≈ 2.94 µM)
- hemolysis at 1 h, 32 ug/ml [12]: 70%
- Drug uptake [13]: 7.7 nmol/mg
- MIC (Staphylococcus aureus [14]): 2 µg/mL (≈ 2.94 µM)
- Activity (Staphylococcus aureus [15]): ~83%
- Activity (Staphylococcus aureus [16]): Active
- inhibition (INH) (Staphylococcus aureus [17]): 91%
- Activity (Staphylococcus aureus [18]): 7.1%
- MIC (Bacillus subtilis): 1 µg/mL (≈ 1.47 µM)
- inhibition (INH) (Staphylococcus aureus [19]): >50%
- Activity (Staphylococcus aureus [20]): Active
- MIC (Staphylococcus aureus [21]): 2 µg/mL (≈ 2.94 µM)
- Drug uptake [22]: 3.92 nmol/mg
- MIC (Staphylococcus aureus [23]): 2 µg/mL (≈ 2.94 µM)
- Activity [24]: Non-toxic
- MIC (Staphylococcus aureus [25]): 2 µg/mL (≈ 2.94 µM)
- MIC (Staphylococcus aureus [26]): 2 µg/mL (≈ 2.94 µM)
- Activity (Staphylococcus aureus [27]): 18.42%
- Activity (Cell membrane [28]): Active
- Activity [29]: Non-toxic
- Activity [30]: Non-toxic
- inhibition (Staphylococcus aureus [31]): Active
- MIC (Staphylococcus aureus [32]): 2 µg/mL (≈ 2.94 µM)
- MIC (Pseudomonas aeruginosa): > 64 µg/mL
- Drug uptake [33]: 9.91 nmol/mg
- Drug uptake [34]: 5.93 nmol/mg
- MIC (Acinetobacter baumannii): > 64 µg/mL
- fold change (FC) (Cell membrane [35]): 4
- Activity (Staphylococcus aureus [36]): Active
- MIC (Staphylococcus aureus [37]): 2 µg/mL (≈ 2.94 µM)
